Source: US9464326B2, “Total and phosphorylated IL-1 receptor-associated kinase-1 and IL-1 receptor-associated kinase-4 as a biomarker for cancer progression and chemotherapy resistance” (University of Maryland, Baltimore, priority 2012, dated 2016)

What was measured:
patient T-ALL cells = assay: Western blot of patient T-ALL samples from treated NSG mice; format: in vivo
Protocol: CCRF-CEM (2×10^6) cells were injected intravenously (i.v.) into female NOD.Cg-Prkdc^scid Il2rg^tm1WJl/SzJ IL2RG (NSG) mice (Jackson Laboratories, Bar Harbor, Me.). […] In some experiments mice were injected i.v. with TLR1-TLR2 ligand (2.5 μg) two days after injecting cells. In other experiments mice were injected intraperitoneally (i.p.) with IRAK-1,-4 inhibitor (10 mg/kg) 3, 6, and 9 days (CCRF-CEM cells) or 7, 10, and 13 days (patient T-ALL cells) after detecting CD7^+ T-ALL cells in circulation. The numbers of T-ALL cells in the bone marrow, spleen, liver, and in circulation were determined by staining cells with anti-human CD7 and/or CD5. To compare T-ALL numbers between groups, 10 μl of calibration microbeads (BD Pharmingen) were added to 50 μl of blood (or marrow or spleen suspensions) and the flow cytometry instrument gates were set to count a constant number of beads.
The levels of p-mTOR and p-p65 were also examined in patient T-ALL samples obtained from mice treated with IRAK-1,-4 inhibitor or DMSO.

IRAK-4 = IRAK-4 (Homo sapiens, UniProt Q9NWZ3); conditions: supplier (EMD Millipore) description; cited from earlier work
melanoma cells = assay: Western blot of phosphorylated NF-KB; format: cell-based, human; conditions: 48 hrs, vs DMSO, FIG. 7C
Protocol: FIG. 7. TLR and TLR signaling-related protein expression profiles on melanoma cell lines. (A) The expression levels of TLR1-TLR10 and various TLR-related proteins were examined by Western blot in samples from human melanoma cell lines. (B) The TLR1-TLR2 ligand Pam3CysK4 was added to A375 cells for 48 hrs. Cytokine and chemokine production by was determined using a Milliplex cytokine/chemokine array. (C) IRAK-1,-4 inhibitor or vehicle alone (DMSO) was added to melanoma cells for 48 hrs. The level of phosphorylated and non-phosphorylated p65 subunit of NF-KB was determined by Western blot. (D) Cytokine and chemokine levels in the supernatant A375 cell culture were examined using a Milliplex cytokine/chemokine array 48 hours after adding IRAK-1,-4 inhibitor or DMSO. ANOVA; **P<0.001, *P<0.05.
Total cell extracts were prepared from melanoma cells. […] Melanoma tissue arrays were purchased from US Biomax, Inc (Rockville, Md.). For immunohistochemical staining samples were stained with mouse monoclonal anti-human phosphor-IRAK.-4 antibody (Abnova; dilution, 3.5 μg/ml) or normal mouse serum. […] IHC specimens were analyzed using “quick score” system in which the intensity of the immunohistochemical reaction was scored by multiplying the intensity 1 (weak), 2 (moderate), and 3 (strong) and the proportion of cells staining positively 0 (<10%), 1 (10-25%), 2 (26-50%), 3 (51-75%) or 4 (>75%).

CEM-C2 = assay: Proliferation (3H-thymidine) of CEM-C2; format: cell-based, human
Text: (§1) CCRF-CEM, CEM/C1, CEM/C2, CEM-C7, Jurkat, Loucy, Molt-4, HSB-2, SUP-T1, Hut 78, HH, Hut 102, MO, and H9 T-leukemia and T-lymphoma cell lines were purchased from the American Type Culture Collection (Manassas, Va., USA). All of the cell lines were initially expanded and cryopreserved within one month of receipt. Cells were typically used for 6 months at which time a fresh vial of cryopreserved cells was used. Total T cells from healthy donors were isolated via negative selection followed by positive selection using a CD3+ selection kit (Invitrogen, Carlsbad, Calif.). T cells were isolated from patients with T-ALL bone marrow or peripheral blood samples containing more than 70% leukemia cells using a CD2+ isolation kit (STEMCELL Technologies, Vancouver, Canada). All tissues were collected under institutional IRB-approved protocols and all participants gave written informed assent/consent. For in vitro experiments, T-ALL cells were cultured in AIM-V medium supplemented with 20% human AB serum in the presence of recombinant human stem cell factor (50 ng/mL; Amgen, Thousand Oaks, Calif.), insulin (20 nM; Sigma-Aldrich, St Louis, Mo., USA) and IL-7 (50 ng/mL; R&D Systems, Minneapolis, Minn., USA). In other experiments, protein lysate was collected using the Full Moon Biosystems (Sunnyvale, Calif., USA) buffer prior to protein examination by western blot or protein array.
Cells were cultured in a 96-well plate (Corning Costar, Corning, N.Y., USA) with various concentrations of TLR ligands 1-9, starting at 10 μg/ml, in a final volume of 200 ul. TLR ligands were diluted 2-fold. Cell lines (25-40×10^3/well) were cultured for 54 hours, whereas fresh patient-derived T-ALL cells (200×10^3/well) were cultured for 30 hours prior to adding [^3H]-thymidine for 18 hours. After this time point, cells were harvested with a Packard Filter-Mate-96 cell harvester (Perkin Elmer, Waltham, Mass., USA) and counted on Packard Top Count-NXT (Perkin Elmer, Waltham, Mass., USA). Results were expressed as average counts per minute (cpm). In some experiments CCRF-CEM cells were pre-treated with TLR1-TLR2 ligand (Pam3CysK4; 2.5 ug/ml) for 48 hrs, washed, and then cultured in the presence of varying concentrations of FBS. Forty-eight hours later, proliferation (±SD) was determined by ^3H-thymidine incorporation. Alternatively, apoptosis was measured by flow cytometry after staining cells with Annexin-V (BD Pharmingen, San Diego, Calif., USA) and propidium iodide (Sigma). Cell number was counted under microscopy by staining cells with trypan blue. […]

[1] = system: Primary T-cells Activated; assay: Proliferation (3H-thymidine) of activated primary T-cells; format: cell-based, human
Text: as §1
(§2) Cells were cultured in a 96-well plate (Corning Costar, Corning, N.Y., USA) with various concentrations of TLR ligands 1-9, starting at 10 μg/ml, in a final volume of 200 ul. TLR ligands were diluted 2-fold. Cell lines (25-40×10^3/well) were cultured for 54 hours, whereas fresh patient-derived T-ALL cells (200×10^3/well) were cultured for 30 hours prior to adding [^3H]-thymidine for 18 hours. After this time point, cells were harvested with a Packard Filter-Mate-96 cell harvester (Perkin Elmer, Waltham, Mass., USA) and counted on Packard Top Count-NXT (Perkin Elmer, Waltham, Mass., USA). Results were expressed as average counts per minute (cpm). In some experiments CCRF-CEM cells were pre-treated with TLR1-TLR2 ligand (Pam3CysK4; 2.5 ug/ml) for 48 hrs, washed, and then cultured in the presence of varying concentrations of FBS. Forty-eight hours later, proliferation (±SD) was determined by ^3H-thymidine incorporation. Alternatively, apoptosis was measured by flow cytometry after staining cells with Annexin-V (BD Pharmingen, San Diego, Calif., USA) and propidium iodide (Sigma). Cell number was counted under microscopy by staining cells with trypan blue.
(§3) The following TLR ligands were purchased from Invivogen (San Diego, Calif., USA): tripalmitoyl-S-(bis(palmitoyloxy)propyl)-Cys-Ser-(Lys)3-Lys (TLR1-2); Poly I:C (TLR3); ultrapure S. Minnesota Lipopolysaccharide (TLR4); S. typhimurium flagellin (TLR5); FSL-1 (TLR2/6); Imiquimod (TLR7); ssRNA40/Lyovec (TLR8); CpG-ODN 2006 (TLR9).

SupT1 = assay: Proliferation (3H-thymidine) of SupT1; format: cell-based, human
Text: as §1, §2, §3

Sequence of IRAK-4 (Q9NWZ3 whole entry): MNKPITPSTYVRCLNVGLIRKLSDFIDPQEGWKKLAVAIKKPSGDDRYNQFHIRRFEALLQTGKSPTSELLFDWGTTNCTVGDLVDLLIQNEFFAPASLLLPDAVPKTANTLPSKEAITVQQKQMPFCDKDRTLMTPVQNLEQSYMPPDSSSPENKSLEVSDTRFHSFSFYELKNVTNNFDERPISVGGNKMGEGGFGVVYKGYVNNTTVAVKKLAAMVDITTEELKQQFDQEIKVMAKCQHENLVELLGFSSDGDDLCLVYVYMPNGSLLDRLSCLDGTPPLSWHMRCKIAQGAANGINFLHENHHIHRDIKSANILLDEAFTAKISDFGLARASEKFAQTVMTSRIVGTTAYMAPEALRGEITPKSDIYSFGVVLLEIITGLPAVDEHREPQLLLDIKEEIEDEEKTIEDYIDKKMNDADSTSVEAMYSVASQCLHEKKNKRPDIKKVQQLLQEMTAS

Compound	p-mTOR levels (patient T-ALL cells; patient sample #810 (barely detectable p-IRAK-4), treated in vivo)	reduction of p-p65 levels (patient T-ALL cells; patient samples #825 and #828 from treated NSG mice)	inhibition of IRAK-4 (IRAK-4)	phosphorylated NF-KB (p-NF-KB) (melanoma cells)	Proliferative effects of TLR ligands (CEM-C2; 3H-thymidine uptake, 72 h)	TLR ligand concentration in parentheses below the symbol (CEM-C2; no unit in table (μg/ml))	Proliferative effects of TLR ligands ([1]; Primary T-cells, Activated, 3H-thymidine uptake, 72 h)	TLR ligand concentration in parentheses below the symbol ([1]; Primary T-cells, Activated, no unit in table (μg/ml))	effect on proliferation / T-cell expansion (in words) ([1]; T cells from healthy donors, together with T cell receptor stimulation, FIG. 1A)	Proliferative effects of TLR ligands (SupT1; SupT1, 3H-thymidine uptake, 72 h)	effect on proliferation (in words) (SupT1; SupT1 T-lymphoblastic leukemia, FIG. 1A)
O=C(Nc1nc2ccccc2n1CCN1CCOCC1)c1cccc([N+](=O)[O-])c1 [IRAK-1,-4 inhibitor]	did not show changes	two-fold	selectively inhibits	marked reduction	–	–	–	–	–	–	–
tripalmitoyl-S-(bis(palmitoyloxy)propyl)-Cys-Ser-(Lys)3-Lys [Pam3Cysk4]	–	–	–	–	+ (enhanced proliferation by 25% or greater)	(2.5)	+ (enhanced proliferation by 25% or greater)	(10)	enhanced proliferation	∘	no effect on proliferation
